Holding throughout (type): functional, cell-based
Holding throughout (details): Homo sapiens

In experiment [1] the test system is HL-60. As to the kind of experiment: Compound was tested for cytotoxicity against HL-60 (TB) cell line.
The test system of experiment [2] is NCI-H522. Nature of the experiment: Compound was tested for cytotoxicity against NCI-H522 (lung tumor)cell line.
In experiment [3] the test system is K562. Nature of the experiment: Compound was tested for cytotoxicity against K-562 (leukemia) cell line.
Experiment [4] relates to HL-60. As to the kind of experiment: Compound was tested for cytotoxicity against HL-60(TB) leukemia tumor cell line.

Consider `CC1=CC(=O)C[C@]2(C)CC[C@@H](C(C)CC(=O)CC(C)C)C[C@@H]12` (stereo not given in full), for which the EC50 (usually the concentration giving half of the maximal effect) was found to be 2.25 µM in experiment [1], 4.8 µM in experiment [2] and 5.04 µM in experiment [3].
`CC1=CC(=O)C[C@@]2(C)CC[C@@H](C(C)CC(=O)CC(C)C)C[C@@]12OO` (stereo not given in full) showed an EC50 in experiment [4] of 2.37 µM.
The same measure, in the same setting: the figure for `CC1=CC(=O)C[C@]2(C)CC[C@@H](C(C)CC(=O)CC(C)C)C[C@@]12OO` (stereo not given in full) is 6.35 µM.

For the origin of these results see ChEMBL document CHEMBL1130702, “Novel cytotoxic diterpenes from the stem of Dysoxylum kuskusense” (Bioorg Med Chem Lett, 1998).
